The Cmax is the highest concentration seen after dosing. For orientation: AUC means concentration integrated over time. For orientation: Tmax means the time from dosing to the highest level.

The text below walks through data of patent US20260240784A1, “PHARMACEUTICAL COMPOSITIONS WITH IMPROVED DISSOLUTION” (Applied Materials, Inc., priority 2023, published 2026).

Read-outs that look alike come from different tables or passages of the source.

Series [1] is described as follows: In vivo pharmacokinetic study in Beagle dogs. To be noted: dog, Beagle dogs (n=6).
A further series is described as follows: in vivo. To be noted: Wistar, rat, po.

On to `CC(C)OC(=O)C(C)(C)Oc1ccc(C(=O)c2ccc(Cl)cc2)cc1` [uncoated particles, fenofibrate], for which the AUC(0-t) in series [1] (read-out: AUC0-t, Arithmetic Mean) worked out at 8690 ng·h/mL; in series [1] (read-out: AUC0-t, Geometric Mean) it was 7800 ng·h/mL. Also, the Cmax turned out to be 497 ng/mL in series [1] (read-out: Cmax, Arithmetic Mean); 430 ng/mL in series [1] (read-out: Cmax, Geometric Mean); 12000 ng/mL in “in vivo”. This compound also registered an AUC in the series “in vivo” of 149 µg·h/mL. Further, the Tmax in “in vivo” is 4 h.
